Results as given in patent publication US11311512B2, “Lymph directing prodrugs” (priority 2014, dated 2022).
“And” between values parts separate entries of the source, which are not always exact repeats. Identical values can stand only once. Like-named read-outs stand apart in the source and are kept apart here.

Legend:
[1] = Protocol: Lipid formulations containing the compound of interest were then administered to the animals, the lymph collected and drug concentrations in the lymph subsequently quantified.
Lipid-based formulations of the compounds of the invention or control compounds were prepared as previously described (Trevaskis, N. L. et al., Pharmaceutical Research, 2005, 22(11), 1863-1870). Briefly, approximately 2 mg of the compound (1 mg in the case of Compound 35 and Compound 1), 40 mg oleic acid and 25 mg Tween 80 were mixed in a glass vial until equilibrated (gentle heat (below 50° C.) may be applied for a short period).
[…] This was to eliminate the potential for the relatively high and variable levels of endogenous testosterone in male rats interfering with the quantification of exogenously dosed testosterone. Rats (240-320 g) were maintained on a standard diet and fasted overnight with free access to water prior to experiments. Anaesthetised rats were placed on a heated pad at 37° C. and cannulas were inserted into the duodenum (for formulation administration and rehydration), mesenteric lymph duct (for lymph collection) and carotid artery (for blood collection) as previously described (Edwards et al. Advanced Drug Delivery Reviews 2001, 50(1), 45-60). Post-surgery, rats were re-hydrated for 0.5 h via intraduodenal infusion of normal saline at 2.8 mL/h. The lipid formulations were infused into the duodenum at 2.8 mL/h for 2 h, after which the infusion was changed to 2.8 mL/h normal saline for the remainder of the experiment. Lymph was continuously collected for 6 to 8 h into pre-weighed Eppendorf tubes containing 10 μL of 1,000 IU/mL heparin. The collection tubes were changed hourly and lymph flow was measured gravimetrically. Aliquots of hourly lymph samples were stored at −80° C. prior to assay.
Drug concentration in lymph is expressed as total drug and includes free drug and drug associated with different glycerides. This is assayed by hydrolysis of lymph (to liberate drug from any re-esterified glycerides) prior to assessment of free drug.
FIG. 1 illustrates the cumulative lymphatic transport of total testosterone related derivatives (% of administered dose) versus time in anaesthetised mesenteric lymph duct cannulated female SD rats following intraduodenal infusion of formulations from 0 to 2 h. Each Formulation contained 2 mg of the exemplified compound or the control, testosterone undecanoate (TU), dispersed in 40 mg oleic acid, 25 mg Tween 80 and 5.6 ml PBS.

[2] = Pharmacokinetic study in rats, testosterone plasma concentrations after oral gavage; settings: testosterone in plasma, oral gavage; for Tmax / AUC0-24 h / Cmax: conscious carotid artery cannulated SD female rats; for AUC0-24 h / Cmax: normalized to 2 mg/kg equivalent testosterone dose
Protocol: In order to assess the oral bioavailability of the compounds of the invention, pharmacokinetic studies were conducted in rats and dogs. […] The rats were then allowed to regain consciousness and fasted overnight prior to the commencement of experiments with free access to water. […] The oral formulation of Compound 2 contained 3 mg of the compound, 20 mg oleic acid and 12.5 mg Tween 80 dispersed in 1 mL PBS. Blood samples were collected from the carotid artery cannula from 5 min prior to administration up to 24 h post-dosing and centrifuged at 5000 rpm for 5 min to separate plasma. […] Plasma samples were stored at −80° C. prior to assay by HPLC-MS-MS. In this case samples were assayed for free drug (i.e. non-glyceride associated drug) and were not hydrolysed prior to assay (as was the case with the lymph samples).
FIG. 12 illustrates dose-normalized testosterone plasma concentrations following oral gavage of formulations to conscious, carotid artery cannulated female SD rats. Formulations contained 1 mg of TU, or 2 mg of compounds of the invention containing testosterone dispersed in 40 mg oleic acid, 25 mg Tween 80 and 2 ml PBS. Doses are normalized to a 2 mg/kg equivalent dose of testosterone. Data are shown as mean±SEM for all groups (n=4 or 3 for each group). The embedded figure is the plot of the dose-normalized plasma AUC0-24h (nmol×h/L) of testosterone in the form of a bar graph.

[3] = anaesthetised, mesenteric lymph-duct cannulated male SD rats, intraduodenal infusion 0-2 h, cumulative over 8 h
[4] = lymphatic transport of total MPA derivatives, male SD rats, intraduodenal infusion
[5] = male, Sprague-Dawley, rat, in vivo
[6] = anaesthetised, mesenteric lymph-duct cannulated male SD rats, intraduodenal infusion, MET, ATV, ASP, SER or CEL derivatives

**Q.** With CCCCCCCCCCCCCCCC(=O)OCC(COC(=O)CCCCCCCCCCCCCCC)OC(=O)CC(C)CCOC(=O)CCC(C)=CCc1c(O)c2c(c(C)c1OC)COC2=O (mixture of isomers) [Compound 38] as the compound, how does the “Transport of total MPA derivatives in lymph (% of dose)” value [1, 3] read?
**A.** 12.1 % of dose and 12.1 ± 1.0 % of dose

**Q.** And the “Fold increase (compared with MPA dosed group)” value [1, 4]?
**A.** 72.3 fold

**Q.** What does the source list for CC(=O)Oc1ccccc1C(=O)O [ASP, aspirin, reference compound]?
**A.** Increase fold (compared with parent drug group) [1, 5]: 1.0 fold; Transport of total drug derivatives in lymph (% of dose) [1, 5]: 1.3 ± 0.2 % of dose

**Q.** With COCCc1ccc(OCC(O)CNC(C)C)cc1 (stereo not shown) [MET, metoprolol, reference compound] as the compound, how does the “Increase fold (compared with parent drug group)” value (“Increase fold” below) [1, 5] read?
**A.** 1.0 fold

**Q.** And the “Transport of total drug derivatives in lymph (% of dose)” value [1, 5]?
**A.** 0.02 ± 0.01 % of dose

**Q.** For CCCCCCCCCCCCCCCC(=O)OCC(COC(=O)CCCCCCCCCCCCCCC)OC(=O)CCCCCCCCC(=O)Oc1cc(C)cc(C)c1C(C)(C)CC(=O)O[C@H]1CC[C@H]2[C@@H]3CCC4=CC(=O)CC[C@]4(C)[C@H]3CC[C@]12C [Compound 26], which Tmax [2] is on record?
**A.** 1.1 ± 0.1 h

**Q.** What about the AUC0-24 h [2] of the same compound?
**A.** 0.6173 ± 0.1778 µM·h

**Q.** What about the Cmax [2] of the same compound?
**A.** 487 ± 134 nM

**Q.** For CCCCCCCCCCCCCCCC(=O)OCC(COC(=O)CCCCCCCCCCCCCCC)OC(=O)CCCCC(=O)Oc1cc(C)cc(C)c1C(C)(C)CC(=O)O[C@H]1CC[C@H]2[C@@H]3CCC4=CC(=O)CC[C@]4(C)[C@H]3CC[C@]12C [Compound 22, 1,3-Bis(palmitoyloxy)propan-2-yl (2-(4-(((8R,9S,10R,13S,14S,17S)-10,13-dimethyl-3-oxo-2,3,6,7,8,9,10,11,12,13-14,15,16,17-tetradecahydro-1H-cyclopenta[a]phenanthren-17-yl)oxy)-2-methyl-4-oxobutan-2-yl)-3,5-dimethylphenyl) adipate], which Tmax [2] is on record?
**A.** 1.0 ± 0.0 h

**Q.** And the AUC0-24 h [2]?
**A.** 0.2691 ± 0.0588 µM·h

**Q.** And the Cmax [2]?
**A.** 171 ± 27 nM

**Q.** With CCCCCCCCCCCCCCCC(=O)OCC(COC(=O)CCCCCCCCCCCCCCC)OC(=O)C(C)CCCOC(=O)CCC(C)=CCc1c(O)c2c(c(C)c1OC)COC2=O (mixture of isomers) [Compound 36] as the compound, how does the “Transport of total MPA derivatives in lymph (% of dose)” value [1, 3] read?
**A.** 9.1 % of dose and 9.1 ± 1.4 % of dose

**Q.** What about the “Fold increase (compared with MPA dosed group)” value [1, 4] of the same compound?
**A.** 54.6 fold

**Q.** With CN[C@H]1CC[C@@H](c2ccc(Cl)c(Cl)c2)c2ccccc21 [SER, sertraline, reference compound] as the compound, how does the “Increase fold” value [1, 5] read?
**A.** 1.0 fold

**Q.** And the “Transport of total drug derivatives in lymph (% of dose)” value [1, 5]?
**A.** 0.05 % of dose

**Q.** With CCCCCCCCCCCCCCCC(=O)OCC(COC(=O)CCCCCCCCCCCCCCC)OC(=O)CCCCCCCCCCCCCCCCCCCCOC(=O)CC/C(C)=C/Cc1c(O)c2c(c(C)c1OC)COC2=O [Compound 35] as the compound, how does the “Transport of total MPA derivatives in lymph (% of dose)” value [1, 3] read?
**A.** 9.7 ± 1.0 % of dose

**Q.** What about the “Fold increase (compared with MPA dosed group)” value [1, 4] of the same compound?
**A.** 58.1 fold

**Q.** With CCCCCCCCCCCCCCCC(=O)OCC(COC(=O)CCCCCCCCCCCCCCC)OC(=O)CCCCSC(=O)CC/C(C)=C/Cc1c(O)c2c(c(C)c1OC)COC2=O [Compound 40] as the compound, how does the “Transport of total MPA derivatives in lymph (% of dose)” value [1, 3] read?
**A.** 10.2 ± 3.0 % of dose

**Q.** What about the “Fold increase (compared with MPA dosed group)” value [1, 4] of the same compound?
**A.** 61.1 fold

**Q.** Which “Transport of total drug derivatives in lymph (% of dose)” value [1, 6] does the source give for “1-(1,3-Bis(palmitoyloxy)propan-2-yl) 10-(1-(isopropylamino)-3-(4-(2-methoxyethyl)phen-oxy)propan-2-yl) decanedioate [Compound 3]” here?
**A.** 14.2 ± 1.5 % of dose

**Q.** And the “Increase fold” value ([1]; lymphatic transport of total drug derivatives, male SD rats, intraduodenal infusion)?
**A.** 591.7 fold

**Q.** Which “Fold increase (compared with MPA dosed group)” value [1, 5] does the source give for COc1c(C)c2c(c(O)c1C/C=C(\C)CCC(=O)O)C(=O)OC2 [MPA, mycophenolic acid, reference compound] here?
**A.** 1.0 fold

**Q.** And the “Transport of total MPA derivatives in lymph (% of dose)” value [1, 5]?
**A.** 0.17 ± 0.05 % of dose

**Q.** Which “Transport of total MPA derivatives in lymph (% of dose)” value [1, 3] does the source give for CCCCCCCCCCCCCCCC(=O)OCC(COC(=O)CCCCCCCCCCCCCCC)OC(=O)CC(C)CCCCCCCCCCCCOC(=O)CCC(C)=CCc1c(O)c2c(c(C)c1OC)COC2=O (mixture of isomers) [Compound 39] here?
**A.** 28.4 % of dose and 28.4 ± 3.2 % of dose

**Q.** What about the “Fold increase (compared with MPA dosed group)” value [1, 4] of the same compound?
**A.** 167.0 fold

**Q.** With CCCCCCCCCCCCCCCC(=O)OCC(COC(=O)CCCCCCCCCCCCCCC)OC(=O)CCCC(=O)O[C@H]1CC[C@H]2[C@@H]3CCC4=CC(=O)CC[C@]4(C)[C@H]3CC[C@]12C [Compound 10] as the compound, how does the “Transport of total TST derivatives in lymph (% of dose)” value ([1]; anaesthetised, mesenteric lymph-duct cannulated female SD rats, intraduodenal infusion 0-2 h, cumulative over 8 h) read?
**A.** 14.5 % of dose

**Q.** And the “Fold increase (compared with control group dosed with TU)” value ([1]; lymphatic transport of total TST derivatives, female SD rats, intraduodenal infusion)?
**A.** 7.7 fold

**Q.** What about the “AUC0-24 h fold increase compared with TU group” value ([2]; SD female rats, dose-normalized) of the same compound?
**A.** 2.8 fold and 2.9 fold

**Q.** What about the Tmax [2] of the same compound?
**A.** 1.0 ± 0.0 h and 1.1 ± 0.1 h

**Q.** And the AUC0-24 h [2]?
**A.** 0.0191 ± 0.0024 µM·h and 0.0196 ± 0.0008 µM·h

**Q.** And the Cmax [2]?
**A.** 19 nM and 13.7 nM

**Q.** What does the source list for CCCCCCCCCCCCCCCC(=O)OCC(COC(=O)CCCCCCCCCCCCCCC)OC(=O)CCCCCCCCCCCCCCOC(=O)CC/C(C)=C/Cc1c(O)c2c(c(C)c1OC)COC2=O [Compound 34]?
**A.** Transport of total MPA derivatives in lymph (% of dose) [1, 3]: 22.1 % of dose and 22.1 ± 3.5 % of dose; Transport of total MPA derivatives in lymph (% of dose) ([1]; anaesthetised, mesenteric lymph-duct cannulated male SD rats, intraduodenal infusion 0-2 h, cumulative over 8 h, listed as compound 34): 22.1 % of dose; Fold increase (compared with MPA dosed group) [1, 4]: 132.0 fold

**Q.** Which “Transport of total drug derivatives in lymph (% of dose)” value [1, 6] does the source give for CCCCCCCCCCCCCCCC(=O)OCC(COC(=O)CCCCCCCCCCCCCCC)OC(=O)CCCCCCCCC(=O)Oc1cc(C)cc(C)c1C(C)(C)CC(=O)NS(=O)(=O)c1ccc(-n2nc(C(F)(F)F)cc2-c2ccc(C)cc2)cc1 [Compound 5] here?
**A.** 15.7 ± 1.3 % of dose

**Q.** For CCCCCCCCCCCCCCCC(=O)OCC(COC(=O)CCCCCCCCCCCCCCC)OC(=O)C(C)CCCCOC(=O)CCC(C)=CCc1c(O)c2c(c(C)c1OC)COC2=O (mixture of isomers) [Compound 37], which “Transport of total MPA derivatives in lymph (% of dose)” value [1, 3] is on record?
**A.** 12.6 % of dose and 12.6 ± 1.7 % of dose

**Q.** And the “Fold increase (compared with MPA dosed group)” value [1, 4]?
**A.** 75.0 fold

**Q.** With CCCCCCCCCCCCCCCC(=O)OCC(COC(=O)CCCCCCCCCCCCCCC)OC(=O)CCCCCCCOC(=O)CC/C(C)=C/Cc1c(O)c2c(c(C)c1OC)COC2=O [Compound 33] as the compound, how does the “Transport of total MPA derivatives in lymph (% of dose)” value [1, 3] read?
**A.** 10.5 ± 0.7 % of dose

**Q.** What about the “Fold increase (compared with MPA dosed group)” value [1, 4] of the same compound?
**A.** 62.8 fold
